In patent US20240158348A1, “HERBICIDAL CYCLIC AMIDES N-SUBSTITUTED WITH A HALOALKYLSULFONYLANILIDE GROUP” (FMC Corporation, priority 2021, published 2024):

Assays:
Format in all cases: in vivo
[1] = system: goosegrass (Eleusine indica); assay: Test C postemergence, goosegrass; settings: for Goosegrass plant response rating: 31 g ai/ha Postemergence, visual injury, 0 to 100 scale (0 no effect, 100 complete control); for Plant response rating (0 to 100 scale), Goosegrass: 125 g ai/ha Postemergence, 0 is no effect, 100 is complete control
Outline: (§1)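 Greenhouse pot test. Compounds in a non-phytotoxic solvent with surfactant were applied to a loam–sand soil mix either preemergence as a directed spray or postemergence to plants at the one- to two-leaf stage; 0–100 visual ratings followed after 10 or 12 days.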

soybean (Glycine max) = assay: Test C preemergence, soybean; settings: 0 is no effect, 100 is complete control
Outline: as §1

[2] = system: blackgrass (Alopecurus myosuroides); assay: Test C postemergence, blackgrass; settings: 125 g ai/ha Postemergence; 0 is no effect, 100 is complete control

Row | SMILES | Goosegrass plant response rating [1] | Plant response rating (0 to 100 scale), Goosegrass [1] | Plant response rating (0 to 100 scale), Soybean (soybean (Glycine max); 31 g ai/ha Preemergence) | Plant response rating (0 to 100 scale), Soybean (soybean (Glycine max); 125 g ai/ha Preemergence) | Plant response rating (0 to 100 scale), Blackgrass [2]
1 | Cc1cc(C)c(N2CCC(OC3CC3)C2=O)cc1NS(=O)(=O)C(F)(F)F (single isomer, unassigned) [Compound 29] | 90 | 90 | 90 | 100 | 70
2 | Cc1cc(C)c(N2CCC(OC3CC3)C2=O)cc1NS(=O)(=O)C(F)(F)F (single isomer, unassigned) [Compound 30] | 80 | 90 | 80 | 90 | 90
3 | CO/N=C1\CCN(c2cc(NS(=O)(=O)C(F)(F)F)c(C)cc2C)C1=O [Compound 9, 1,1,1-trifluoro-N-[5-[3-(methoxyimino)-2-oxo-1-pyrrolidinyl]-2,4-dimethylphenyl]methanesulfonamide] | 90 | 90 | 80 | 100 | 90
4 | Cc1cc(C)c(N2CC/C(=N\O)C2=O)cc1NS(=O)(=O)C(F)(F)F [Compound 10, 1,1,1-trifluoro-N-[5-[3-(hydroxyimino)-2-oxo-1-pyrrolidinyl]-2,4-dimethylphenyl]methanesulfonamide] | 90 | 90 | 60 | 70 | 90
5 | C=CCO/N=C1\CCN(c2cc(NS(=O)(=O)C(F)(F)F)c(C)cc2C)C1=O [Compound 11] | 90 | 100 | 50 | 90 | 90
6 | CCO/N=C1\CCN(c2cc(NS(=O)(=O)C(F)(F)F)c(C)cc2C)C1=O [Compound 12, N-[5-[3-(ethoxyimino)-2-oxo-1-pyrrolidinyl]-2,4-dimethylphenyl]-1,1,1-trifluoromethanesulfonamide] | 100 | 100 | 90 | 100 | 100
7 | Cc1cc(C)c(N2CCC(O)C2=O)cc1NS(=O)(=O)C(F)(F)F (stereo not shown) [Compound 14] | 60 | 90 | 100 | 100 | 70
8 | CC(=O)N(c1cc(N2CCC(OC3CC3)C2=O)c(C)cc1C)S(=O)(=O)C(F)(F)F (stereo not shown) [Compound 17] | 90 | 90 | 80 | 100 | 80
9 | CCCC(=O)OCN(c1cc(N2CCC(OC3CC3)C2=O)c(C)cc1C)S(=O)(=O)C(F)(F)F (stereo not shown) [Compound 20] | 90 | 90 | 70 | 90 | 90
10 | Cc1cc(C)c(N2CCC(OCC3CC3)C2=O)cc1NS(=O)(=O)C(F)(F)F (stereo not shown) [Compound 22] | 70 | 90 | 80 | 90 | 90
11 | Cc1c(N2CCC(OC3CC3)C2=O)cc(N(COC(=O)C(C)(C)C)S(=O)(=O)C(F)(F)F)c(C)c1F (stereo not shown) [Compound 23] | 30 | 90 | 30 | 40 | 50
12 | Cc1c(NS(=O)(=O)C(F)(F)F)cc(N2CCC(OC3CCC3)C2=O)c(C)c1F (stereo not shown) [Compound 25] | 50 | 90 | 80 | 90 | 90
13 | Cc1c(N2CCC(OC3CCC3)C2=O)cc(N(COC(=O)C(C)(C)C)S(=O)(=O)C(F)(F)F)c(C)c1F (stereo not shown) [Compound 28] | 30 | 70 | 20 | 80 | 70
14 | Cc1cc(Cl)c(N(COC(=O)C(C)(C)C)S(=O)(=O)C(F)(F)F)cc1N1CCC(OC2CC2)C1=O (stereo not shown) [Compound 33] | 60 | 90 | 0 | 60 | 60
15 | Cc1cc(C)c(N2CCC(OC3COC3)C2=O)cc1NS(=O)(=O)C(F)(F)F (stereo not shown) [Compound 34] | 30 | 80 | 40 | 90 | 60
16 | Cc1c(NS(=O)(=O)C(F)(F)F)cc(N2CCCC(OC3CC3)C2=O)c(C)c1F (stereo not shown) [Compound 35] | 70 | 90 | 50 | 90 | 60
17 | CC(=O)N(c1cc(N2CCC(OC3CC3)C2=O)c(C)cc1Cl)S(=O)(=O)C(F)(F)F (stereo not shown) [Compound 38] | 30 | 90 | 80 | 90 | 70
